Assay results taken from patent publication US9993554B2 (CENTRO NACIONAL DE INVESTIGACIONES ONCOLOGICAS (CNIO), priority 2010, dated 2018).
pKi: −log10 of the molar value. Entries after “also recorded” stand apart in the source; their conditions may differ.

Assays:
[1] = target: PI3K isoform p110δ (Homo sapiens, UniProt O00329); assay: Inhibition of PI3K isoform p110δ; assay type: biochemical
[2] = tested on: pre-brown adipocytes; assay: Immortalized neonatal (pre-)brown adipocytes treated with PI3K inhibitors: phospho-Akt and Ucp1 mRNA; assay type: cell-based, mice; conditions: 4 h
Procedure: Pre-brown adiposcytes were treated with Compound A or with the indicated PI3KI for 4 h. After this time, extracts were prepared for analysis of phospho-Akt (upper panels) or for analysis of Ucp1 mRNA levels (lower panels).
Mouse Embryonic Fibroblasts (MEFs) were isolated at E13.5 as previously described^42. For insulin stimulation, primary MEFs were serum starved (0% FBS) for 12 h, followed by 60 min incubation with PBS and then stimulated with 1 μg/ml of insulin (Sigma) during 30 min. For oncogenic transformation, primary MEFs were retrovirally transduced with pLXSN-neo-E6 and either pWZL-blast-middle-T (kindly provided by Jean Zhao, Dana-Farber Cancer Institute, Boston) or pBABE-puro-EGFRL858R (kindly provided by William Sellers and Matthew Meyerson, Addgene plasmid #11012)^43. After the corresponding drug selection 20,000 cells were plated in 10 cm diameter plates, and 2 weeks later were fixed and stained with 20% Giemsa. Immortalized brown adipocyte cell lines were obtained from the interscapular BAT of 3-5 day-old neonates, treated with and cultured as previously described^33. For immortalization, cultures were retrovirally transduced with Large-T antigen (in vector pBABE-puro, kindly provided by James de Caprio, Dana Farber Cancer Institute, Boston). For the reprogramming of 3T3-L1 adipocytes into brownadipocytes, we followed the method previously reported^50. Briefly, 3T3-L1 cells were retrovirally transduced with pBABE-puro-Cebpb (kindly provided by Roger R. Gomis, IRB, Barcelona). After drug selection with puromycin, cells were grown to confluence and subsequently cultured for 48 h with “differentiation medium” (DMEM 10% FBS, 20 nM insulin, 1 nM T3, 1 μM rosiglitazone, 0.5 mM isobutylmethylxanthine, 125 nM indomethacin, 5 μM dexamethasone). After this, cells were exposed to “maintenance medium” (DMEM 10% FBS, 20 nM insulin, 1 nM T3) for 4 days. For the experiment shown in FIG. 4d, differentiated 3T3-L1/Cebpβ or non-differentiated neonatal immortalized brown adipocytes cultures were PBS washed and treated with “regular medium” (DMEM 10% FBS) containing 10 μM forskolin (Sigma) and/or or 1 μM Compound A for 4 h.
Immortalized brown adipocytes were obtained from the interscapular BAT of 3-5 day-old neonates and immortalized by retroviral transduction of Large-T antigen (in vector pBABE-puro, kindly provided by James de Caprio, Dana Farber Cancer Institute, Boston). […]
For RNA analyses, total RNA from pre-brown adipocytes was extracted using TRIZOL (Invitrogen). Reverse transcription was performed using random primers and Ready-To-Go™ You-Prime First-Strand Beads (GE Healthcare). Quantitative real time-PCR was performed using DNA Master Sybr Green I mix (Applied Biosystems) in an ABI PRISM 7700 thermocycler (Applied Biosystem). […]

[3] = tested on: SCID mice bearing human NSCLC A549 lung tumors; assay: Body weight of SCID mice bearing A549 lung tumor xenografts; assay type: in vivo; conditions: 22 mg/kg orally, 9 doses, SCID mice with A549 xenografts
Procedure: FIG. 41. Body weight evolution of SCID mice bearing human NSCLC A549 lung tumors when treated with Compound A orally, 9 doses of 22 mg/Kg during day 15th and 30th, versus compounds treated with vehicle.
In “normal conditions” no body weight loss is observed.

[4] = tested on: obese mice under high-fat diet; assay: Body weight and food intake of obese mice under high-fat diet; assay type: in vivo; conditions: 10 mg/kg, ad libitum high-fat food
Procedure: Obese mice under long-term high-fat (HFD) were dosed with Compound A or with the indicated PI3KI by gavage once per day, during 2 weeks, resting the intervening week-end, and always with ad libitum access to HFD. During the two weeks of treatment, it was scored the amount of food intake (upper left panel) and the change in body weight relative to the initiation of the treatment (upper right panel). The final relative change in body weight is also represented (lower panel). The weight of non-obese littermates (always fed with standard diet, SD) is marked for reference.
Mice were fed either with a standard chow diet (Harlan Teklad 2018, 18% calories from fat) or, when indicated, with a high fat diet (Research Diets D12451, 45% of total calories from fat). To measure food intake, mice were housed in metabolic cages during 5 days, and food and water intake, as well as, the output of faeces and urine were measured during the last 4 days. Body composition (fat and lean content) was determined by Dual energy X-ray Absorptiometry (DXA) (Lunar PIXImus Densitometer, GE Medical Systems). Image acquisition lasted 5 minutes with mice under anesthesia by inhalation of 2% isofluorane in 100% oxygen. The analysis of lean mass and fat mass was performed using a Region Of Interest (ROI) comprising the entire body. […]

[5] = target: PI3K isoform p110γ (Homo sapiens, UniProt P48736); assay: Inhibition of PI3K isoform p110γ; assay type: biochemical
Sequence of PI3K isoform p110γ (P48736 whole entry, canonical isoform): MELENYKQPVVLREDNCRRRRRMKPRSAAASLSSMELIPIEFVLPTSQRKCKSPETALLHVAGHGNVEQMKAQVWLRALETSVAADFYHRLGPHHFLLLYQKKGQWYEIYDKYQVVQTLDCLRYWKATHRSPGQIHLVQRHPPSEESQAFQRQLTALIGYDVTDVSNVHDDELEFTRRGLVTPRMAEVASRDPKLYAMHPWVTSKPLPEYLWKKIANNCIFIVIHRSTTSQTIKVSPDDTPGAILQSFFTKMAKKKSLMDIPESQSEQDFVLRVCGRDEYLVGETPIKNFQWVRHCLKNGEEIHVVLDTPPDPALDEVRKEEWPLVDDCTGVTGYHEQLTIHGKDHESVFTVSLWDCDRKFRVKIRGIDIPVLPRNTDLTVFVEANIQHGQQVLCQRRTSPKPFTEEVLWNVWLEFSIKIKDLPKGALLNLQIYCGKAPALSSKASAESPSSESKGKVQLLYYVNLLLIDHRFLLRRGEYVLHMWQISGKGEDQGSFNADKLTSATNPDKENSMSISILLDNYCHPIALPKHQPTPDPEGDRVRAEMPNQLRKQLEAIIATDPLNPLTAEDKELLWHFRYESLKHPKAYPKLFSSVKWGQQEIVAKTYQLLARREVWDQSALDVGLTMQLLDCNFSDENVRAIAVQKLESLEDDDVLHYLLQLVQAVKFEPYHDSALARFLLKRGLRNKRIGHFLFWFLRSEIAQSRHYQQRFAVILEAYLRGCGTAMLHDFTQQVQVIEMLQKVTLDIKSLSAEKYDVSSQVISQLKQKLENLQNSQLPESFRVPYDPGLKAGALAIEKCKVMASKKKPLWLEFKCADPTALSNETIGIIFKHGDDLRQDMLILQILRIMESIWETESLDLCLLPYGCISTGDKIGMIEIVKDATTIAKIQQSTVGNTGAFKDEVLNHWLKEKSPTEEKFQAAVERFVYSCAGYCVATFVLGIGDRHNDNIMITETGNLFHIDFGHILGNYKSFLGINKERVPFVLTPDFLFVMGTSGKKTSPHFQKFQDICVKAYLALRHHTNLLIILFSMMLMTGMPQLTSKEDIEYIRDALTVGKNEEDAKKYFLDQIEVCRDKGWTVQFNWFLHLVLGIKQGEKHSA

Sequence of PI3K isoform p110δ (O00329 whole entry, canonical isoform): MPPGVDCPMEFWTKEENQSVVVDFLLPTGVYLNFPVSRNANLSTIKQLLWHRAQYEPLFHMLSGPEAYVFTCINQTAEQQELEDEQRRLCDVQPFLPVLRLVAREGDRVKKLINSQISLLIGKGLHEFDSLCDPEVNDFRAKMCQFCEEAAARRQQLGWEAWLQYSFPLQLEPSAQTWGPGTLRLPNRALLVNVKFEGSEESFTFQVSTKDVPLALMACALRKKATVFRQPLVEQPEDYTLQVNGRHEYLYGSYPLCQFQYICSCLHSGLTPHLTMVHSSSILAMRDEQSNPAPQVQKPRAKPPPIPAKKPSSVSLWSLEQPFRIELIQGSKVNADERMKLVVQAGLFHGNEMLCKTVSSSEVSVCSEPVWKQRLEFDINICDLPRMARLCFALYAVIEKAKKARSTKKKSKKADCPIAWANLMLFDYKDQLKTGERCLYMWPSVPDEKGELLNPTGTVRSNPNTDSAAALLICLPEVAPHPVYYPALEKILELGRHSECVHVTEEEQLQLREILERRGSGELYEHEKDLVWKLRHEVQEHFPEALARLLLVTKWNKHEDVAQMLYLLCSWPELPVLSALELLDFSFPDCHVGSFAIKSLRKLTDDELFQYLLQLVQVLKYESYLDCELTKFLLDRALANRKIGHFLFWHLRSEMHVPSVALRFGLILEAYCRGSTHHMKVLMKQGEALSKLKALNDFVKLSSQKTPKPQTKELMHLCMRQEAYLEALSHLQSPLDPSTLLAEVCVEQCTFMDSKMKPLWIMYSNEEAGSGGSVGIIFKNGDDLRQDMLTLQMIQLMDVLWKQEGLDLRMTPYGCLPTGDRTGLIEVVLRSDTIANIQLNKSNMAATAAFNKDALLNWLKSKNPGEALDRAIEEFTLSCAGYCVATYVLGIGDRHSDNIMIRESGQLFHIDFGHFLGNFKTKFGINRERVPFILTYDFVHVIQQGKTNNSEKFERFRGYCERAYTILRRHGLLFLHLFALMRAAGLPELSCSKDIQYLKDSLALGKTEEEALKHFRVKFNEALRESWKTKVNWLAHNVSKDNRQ
Sequence of PI3K isoform p110δ (P27986 whole entry partner, canonical isoform): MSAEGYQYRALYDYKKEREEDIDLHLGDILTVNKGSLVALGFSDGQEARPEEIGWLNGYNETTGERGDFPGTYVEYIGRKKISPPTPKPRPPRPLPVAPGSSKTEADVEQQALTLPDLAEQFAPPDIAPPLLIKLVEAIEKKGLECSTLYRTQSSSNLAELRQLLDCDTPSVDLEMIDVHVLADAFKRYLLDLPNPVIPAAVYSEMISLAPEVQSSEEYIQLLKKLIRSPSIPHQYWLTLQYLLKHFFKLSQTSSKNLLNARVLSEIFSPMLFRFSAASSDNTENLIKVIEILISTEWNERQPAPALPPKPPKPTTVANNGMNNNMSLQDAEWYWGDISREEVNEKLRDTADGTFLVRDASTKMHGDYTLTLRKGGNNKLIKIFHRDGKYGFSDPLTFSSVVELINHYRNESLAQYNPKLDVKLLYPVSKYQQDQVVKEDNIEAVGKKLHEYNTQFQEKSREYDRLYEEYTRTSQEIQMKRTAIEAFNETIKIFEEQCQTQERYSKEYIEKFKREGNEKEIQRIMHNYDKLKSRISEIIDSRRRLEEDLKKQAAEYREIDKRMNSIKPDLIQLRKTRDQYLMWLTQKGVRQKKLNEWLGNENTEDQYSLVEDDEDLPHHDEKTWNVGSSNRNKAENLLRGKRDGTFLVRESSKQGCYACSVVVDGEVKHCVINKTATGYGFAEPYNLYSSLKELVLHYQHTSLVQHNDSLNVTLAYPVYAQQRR

pKi [1]: 8.01
pKi [5]: < 7.00
SMILES: CS(=O)(=O)N1CCN(Cc2cn3c(Cl)c(-c4cnc(N)nc4)nc(N4CCOCC4)c3n2)CC1 [Compound A]
inhibition of the phosphorylation of Akt ([2]; 1 microM): measurable inhibition
up-regulation of Ucp1 mRNA levels ([2]; 10-20 microM): 8-20 fold
inhibition of the phosphorylation of Akt ([2]; 10 microM): complete inhibition
expression of Ucp1 ([2]; immortalized neonatal brown adipocytes (three independent lines), 1 μM): upregulated
body weight of non-obese mice [3]: no changes in body weight; also recorded: “lack” of weight loss activity
decrease of body weight ([4]; gavage once a day for 2 weeks): approx. 10%
food intake ([4]; during treatment): did not change significantly
